Reference: patent US20260116921A1, “PEPTIDE INHIBITORS OF INTERLEUKIN-23 RECEPTOR AND THEIR USE TO TREAT INFLAMMATORY DISEASES” (priority 2018, published 2026)
Read-outs that look alike come from different tables or passages of the source. Numbered stars: 1 amine (or outer) side, 2 acyl side, 3 side chain; on linkers, the order of the positions; unused ones are H or OH. Bridge positions count the residues as written; N and C are the ends. Square brackets hold non-standard residues; d marks the D form. Peptide text beside a SMILES is read from it. Trp(7-Me) = Cc1cccc2c(C[C@H](N)C(=O)O)c[nH]c12; Abu(4-yl) = O=C([C@H](CC[*:3])N[*:1])[*:2]; 2Nal = N[C@@H](Cc1ccc2ccccc2c1)C(=O)O; AEF = NCCOc1ccc(C[C@H](N)C(=O)O)cc1; Cit = NC(=O)NCCC[C@H](N)C(=O)O; Pen = CC(C)(S)[C@H](N)C(=O)O; αMeK = C[C@](N)(CCCCN)C(=O)O; Aib = CC(C)(N)C(=O)O

How the values were obtained:
in vitro [1] = conditions: cynomolgus monkey, 20% fecal homogenate (supernatant), anaerobic, pH 6.8
Procedure: (§1) Fecal homogenate (20%) was prepared by adding 4 mL of growth medium (1 liter contains 2 g peptone water powder, 2 g yeast extract, 0.1 g NaCl, 0.04 g KH2PO4, 0.01 g CaCl2·6H2O, 0.01 g MgSO4·7H2O, 2 mL Tween 80, 0.5 g bile salts, 0.5 g L-cysteine HCl, 2 g NaHCO3, and 10 μL Vitamin K, pH adjusted to 6.8, and sterilized by filtration through a 0.22 μm filter) to every gram of feces (pooled freshly collected human or cynomolgus monkey feces). The suspension was vortexed to break up large clumps, and homogenized using a bead mill homogenizer. Centrifuged the homogenate at 2800×g for 15 min. The supernatant is taken out and used for incubations. DMSO stocks (10 mM) were first prepared for the test compounds. Incubations were performed in an anaerobic chamber conditioned at 37° C. Aliquots of the DMSO solutions were dosed into 1.0 mL aliquots of 20% fecal homogenate, which are pre-warmed to 37° C. The final test compound concentration was 20 μM. At each timepoint (0, 20 min, 1, 3, 6, or 24 hours), 100 μL aliquot of each incubation mixture is taken out and added to separate tubes containing 300 μL of 50% acetonitrile/50% methanol and an internal standard to terminate the reaction. Samples were taken out of the anaerobic chamber and stored at 4° C. until the end of the experiment. After the final timepoint is sampled, the tubes were mixed and then centrifuged at 3,000 rpm for 10 minutes. Aliquots of the supernatant were removed, diluted 1:1 into distilled water containing 0.1% formic acid, and analyzed by LC/MS/MS. Percent remaining at each timepoint was calculated based on the peak area response ratio of test to compound to internal standard. Time 0 was set to 100%, and all later timepoints were calculated relative to time 0. Half-lives were calculated by fitting to a first-order exponential decay equation using Graphpad or Excel.

IL-23R = molecular target: T1, IL-23R (Homo sapiens, UniProt Q5VWK5); assay: DB cells IL23R pSTAT3 cell assay (pStat3 HTRF); assay type: cell-based
T1 sequence (Q5VWK5 24-629): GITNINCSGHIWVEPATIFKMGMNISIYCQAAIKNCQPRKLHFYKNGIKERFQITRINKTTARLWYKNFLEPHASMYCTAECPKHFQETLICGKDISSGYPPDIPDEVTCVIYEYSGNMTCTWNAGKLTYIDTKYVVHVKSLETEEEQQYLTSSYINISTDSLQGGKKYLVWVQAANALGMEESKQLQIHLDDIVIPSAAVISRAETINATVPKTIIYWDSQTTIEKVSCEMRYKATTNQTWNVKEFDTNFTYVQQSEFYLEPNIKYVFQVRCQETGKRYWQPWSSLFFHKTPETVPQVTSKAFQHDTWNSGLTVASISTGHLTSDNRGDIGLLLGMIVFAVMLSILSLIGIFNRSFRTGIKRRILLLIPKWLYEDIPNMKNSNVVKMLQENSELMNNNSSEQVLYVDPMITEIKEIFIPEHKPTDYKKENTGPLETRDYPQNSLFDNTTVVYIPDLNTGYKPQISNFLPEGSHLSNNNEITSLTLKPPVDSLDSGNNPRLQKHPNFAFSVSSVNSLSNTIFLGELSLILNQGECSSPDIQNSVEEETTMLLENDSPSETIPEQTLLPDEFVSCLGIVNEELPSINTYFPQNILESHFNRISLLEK
Text: Human ELISA indicates the IL23-IL23R competitive binding assay described below, Rat ELISA indicates the rat IL-23R competitive binding ELISA assay described below, and pStat3HTRF indicates the DB cells IL-23R pSTAT3 cell assay described below. The peptides depicted in Table E1 are cyclized via a disulfide bridge formed between two Pen residues in these peptides. The peptides depicted in Table E2 are cyclized via a thioether bond between the indicated amino acid residues. Table E2 provides an illustrative structure depicting thioether cyclization, which is indicated in the table by the term “cyclo,” with the cyclic region bracketed immediately following the term “cyclo.” For certain peptides, the residue Abu is present where indicated, whereas in other embodiments, e.g., those related to the non-cyclized form, the Abu may be referred to as a hSer(Cl) or homoSer residue.
DB Cells IL23R pSTAT3 Cell Assay
IL-23 plays a central role in supporting and maintaining Th17 differentiation in vivo. This process is thought to be mediated primarily through the Signal Transducer and Activator of Transcription 3 (STAT3), with phosphorylation of STAT3 (to yield pSTAT3) leading to upregulation of RORC and pro-inflammatory IL-17. This cell assay examines the levels of pSTAT3 in IL-23R-expressing DB cells when stimulated with IL-23 in the presence of test compounds. Serial dilutions of test peptides and IL-23 (Humanzyme #HZ-1261) at a final concentration of 0.5 nM, were added to each well in a 96 well tissue culture plate (Corning #CLS3894). DB cells (ATCC #CRL-2289), cultured in RPMI-1640 medium (Thermo Scientific #11875093) supplemented with 10% FBS, were added at 5×10E5 cells/well and incubated for 30 minutes at 37° C. in a 5% CO2 humidified incubator. Changes in phospho-STAT3 levels in the cell lysates were detected using the Cisbio HTRF pSTAT3 (Tyr705) Cellular Assay Kit (Cisbio #62AT3PEH), according to manufacturer's Two Plate Assay protocol.

in vitro [2] = conditions: human, 20% fecal homogenate (supernatant), anaerobic, pH 6.8
Procedure: as §1

[3] = Table E3, DB cells, IL-23 0.5 nM, 30 minutes at 37° C., read-out: pStat3 HTRF (IC50)

SMILES | half-life at 20 μM (in vitro [1]) | IC50 (IL-23R; [3]) | half-life at 20 μM (in vitro [2]) | IC50 (IL-23R)
CC(=O)NCCCC[C@@H]1NC(=O)[C@H](Cc2c[nH]c3c(C)cccc23)NC(=O)[C@H]([C@@H](C)O)NC(=O)[C@H](CCC(N)=O)NC(=O)[C@@H](NC(=O)[C@@H](CCCNC(=N)N)NC(C)=O)CCSC[C@@H](C(=O)N[C@@H](Cc2ccc(OCCN)cc2)C(=O)N[C@@H](Cc2ccc3ccccc3c2)C(=O)N[C@@](C)(CCCCN)C(=O)N[C@@H](CCCCNC(C)=O)C(=O)N[C@@H](CC(N)=O)C(N)=O)NC1=O [compound 326] (Ac-[dR][Abu(4-yl)]QT[Trp(7-Me)]K(Ac)C[AEF][2Nal][αMeK]K(Ac)N-NH2; thioether 2-7) | 660 min | 10 to 100 nM | 660 min | 
CC(=O)NCCCC[C@H](NC(=O)[C@](C)(CC(C)C)NC(=O)[C@H](Cc1ccc2ccccc2c1)NC(=O)[C@H](Cc1ccc(OCCN)cc1)NC(=O)[C@H]1NC(=O)[C@H](CCC(N)=O)NC(=O)[C@H](Cc2c[nH]c3c(C)cccc23)NC(=O)[C@H]([C@@H](C)O)NC(=O)[C@H](CC(N)=O)NC(=O)[C@@H](NC(C)=O)C(C)(C)SSC1(C)C)C(=O)N[C@H](CO)C(=O)NCCC(N)=O [compound 222] | > 1440 min | 1 to 10 nM | > 1440 min | 
CC(=O)N[C@H](CCCNC(=N)N)C(=O)N[C@H]1CCSC[C@@H](C(=O)N[C@@H](Cc2ccc(OCCN)cc2)C(=O)N[C@@H](Cc2ccc3ccccc3c2)C(=O)NC2(C(=O)N[C@@H](CCC(=O)O)C(=O)N[C@@H](CC(N)=O)C(=O)N[C@@H](CC(N)=O)C(N)=O)CCOCC2)NC(=O)[C@H](CCC(N)=O)NC(=O)[C@H](Cc2c[nH]c3c(C)cccc23)NC(=O)[C@H]([C@@H](C)O)NC(=O)[C@H](CCC(N)=O)NC1=O [compound 27] | 180 min |  |  | < 1 nM
CC(=O)NCCCC[C@H](NC(=O)[C@](C)(CCCCN)NC(=O)[C@H](Cc1ccc2ccccc2c1)NC(=O)[C@H](Cc1ccc(OCCN)cc1)NC(=O)[C@H]1NC(=O)[C@H](CCC(N)=O)NC(=O)[C@H](Cc2c[nH]c3cc(C)ccc23)NC(=O)[C@H]([C@@H](C)O)NC(=O)[C@H](CC(N)=O)NC(=O)[C@@H](NC(C)=O)C(C)(C)SSC1(C)C)C(=O)N[C@@H](CC(N)=O)C(=O)NCCC(N)=O [compound 230] | 600 min | 10 to 100 nM | > 1440 min | 
COc1cccc2[nH]cc(C[C@@H]3NC(=O)[C@H]([C@@H](C)O)NC(=O)[C@H](CC(N)=O)NC(=O)[C@@H](NC(C)=O)C(C)(C)SSC(C)(C)[C@@H](C(=O)N[C@@H](Cc4ccc(OCCN)cc4)C(=O)N[C@@H](Cc4ccc5ccccc5c4)C(=O)N[C@@](C)(CCCCN)C(=O)N[C@@H](CCCCNC(C)=O)C(=O)N[C@@H](CC(N)=O)C(=O)NCCC(N)=O)NC(=O)[C@H](CCC(N)=O)NC3=O)c12 [compound 229] | 420 min | 10 to 100 nM | > 1440 min | 
CC(=O)NCCCC[C@H](NC(=O)[C@](C)(CCCCN)NC(=O)[C@H](Cc1ccc2ccccc2c1)NC(=O)[C@H](Cc1ccc(OCCN)cc1)NC(=O)[C@H]1NC(=O)[C@H](CCC(N)=O)NC(=O)[C@H](Cc2c[nH]c3cccc(C)c23)NC(=O)[C@H]([C@@H](C)O)NC(=O)[C@H](CC(N)=O)NC(=O)[C@@H](NC(C)=O)C(C)(C)SSC1(C)C)C(=O)N[C@@H](CC(N)=O)C(=O)NCCC(N)=O [compound 231] | 900 min | 1 to 10 nM | > 1440 min | 
CC(=O)NCCCC[C@H](NC(=O)[C@](C)(CCCCN)NC(=O)[C@H](Cc1ccc2ccccc2c1)NC(=O)[C@H](Cc1ccc(OCCN)cc1)NC(=O)[C@H]1NC(=O)[C@H](CCCNC(N)=O)NC(=O)[C@H](Cc2c[nH]c3c(C)cccc23)NC(=O)[C@H]([C@@H](C)O)NC(=O)[C@H](CC(N)=O)NC(=O)[C@@H](NC(C)=O)C(C)(C)SSC1(C)C)C(=O)N[C@@H](CC(N)=O)C(=O)NC(C)(C)C(=O)N[C@@H](C)C(N)=O [compound 342] (Ac-[Pen]NT[Trp(7-Me)][Cit][Pen][AEF][2Nal][αMeK]K(Ac)N[Aib]A-NH2; disulfide 1-6) |  | < 1 nM |  | 
CC(=O)NCCCC[C@H](NC(=O)[C@](C)(CC(C)C)NC(=O)[C@H](Cc1ccc2ccccc2c1)NC(=O)[C@H](Cc1ccc(OCCN)cc1)NC(=O)[C@H]1NC(=O)[C@H](CCC(N)=O)NC(=O)[C@H](Cc2c[nH]c3c(C)cccc23)NC(=O)[C@H]([C@@H](C)O)NC(=O)[C@H](CC(N)=O)NC(=O)[C@@H](NC(C)=O)C(C)(C)SSC1(C)C)C(=O)N1CCC[C@@H]1C(=O)NCCC(N)=O [compound 212] | > 1440 min | 10 to 100 nM | > 1440 min | 
CC(=O)NCCCC[C@H](NC(=O)[C@](C)(CC(C)C)NC(=O)[C@H](Cc1c[nH]c2c(C)cccc12)NC(=O)[C@H](Cc1ccc(OCCN)cc1)NC(=O)[C@H]1NC(=O)[C@H](CCC(N)=O)NC(=O)[C@H](Cc2c[nH]c3ccccc23)NC(=O)[C@H]([C@@H](C)O)NC(=O)[C@H](CC(N)=O)NC(=O)[C@@H](NC(C)=O)C(C)(C)SSC1(C)C)C(=O)N[C@@H](CC(N)=O)C(=O)N[C@@H](CC(N)=O)C(N)=O [compound 17] |  |  |  | 10 to 100 nM
CC(=O)NCCCC[C@H](NC(=O)[C@](C)(CCCCN)NC(=O)[C@H](Cc1ccc2ccccc2c1)NC(=O)[C@H](Cc1ccc(OCCN)cc1)NC(=O)[C@H]1NC(=O)[C@H](CCCCNC(=O)[C@H](C)N)NC(=O)[C@H](Cc2c[nH]c3c(C)cccc23)NC(=O)[C@H]([C@@H](C)O)NC(=O)[C@H](CC(N)=O)NC(=O)[C@@H](NC(C)=O)C(C)(C)SSC1(C)C)C(=O)N[C@@H](CC(N)=O)C(=O)N[C@H](CC(C)C)C(N)=O [compound 314] |  | 1 to 10 nM |  | 
COc1cccc2c(C[C@@H]3NC(=O)[C@H]([C@@H](C)O)NC(=O)[C@H](CC(N)=O)NC(=O)[C@@H](NC(C)=O)C(C)(C)SSC(C)(C)[C@@H](C(=O)N[C@@H](Cc4ccc(OCCN)cc4)C(=O)N[C@@H](Cc4ccc5ccccc5c4)C(=O)N[C@@](C)(CCCCN)C(=O)N[C@@H](CCCCNC(C)=O)C(=O)N[C@@H](CC(N)=O)C(=O)N[C@H](CCCCN)C(N)=O)NC(=O)[C@H](CCC(N)=O)NC3=O)c[nH]c12 [compound 297] |  | 1 to 10 nM |  | 
CC(=O)NCCCC[C@H](NC(=O)[C@](C)(CC(C)C)NC(=O)[C@H](Cc1c[nH]c2cc(C)ccc12)NC(=O)[C@H](Cc1ccc(OCCN)cc1)NC(=O)[C@H]1NC(=O)[C@H](CCC(N)=O)NC(=O)[C@H](Cc2c[nH]c3ccccc23)NC(=O)[C@H]([C@@H](C)O)NC(=O)[C@H](CC(N)=O)NC(=O)[C@@H](NC(C)=O)C(C)(C)SSC1(C)C)C(=O)N[C@@H](CC(N)=O)C(=O)N[C@@H](CC(N)=O)C(N)=O [compound 16] |  |  |  | 1 to 10 nM
CC(=O)NCCCC[C@H](NC(=O)[C@](C)(CCCCN)NC(=O)[C@H](Cc1ccc2ccccc2c1)NC(=O)[C@H](Cc1ccc(OCCN)cc1)NC(=O)[C@H]1NC(=O)[C@H](CCCNC(N)=O)NC(=O)[C@H](Cc2c[nH]c3c(C)cccc23)NC(=O)[C@H]([C@@H](C)O)NC(=O)[C@H](CC(N)=O)NC(=O)[C@@H](NC(C)=O)C(C)(C)SSC1(C)C)C(=O)N[C@@H](CC(N)=O)C(=O)NC(C)(C)C(=O)N[C@H](CCCCN)C(N)=O [compound 344] (Ac-[Pen]NT[Trp(7-Me)][Cit][Pen][AEF][2Nal][αMeK]K(Ac)N[Aib][dK]-NH2; disulfide 1-6) |  | < 1 nM |  | 
COc1cccc2c(C[C@@H]3NC(=O)[C@H]([C@@H](C)O)NC(=O)[C@H](CC(N)=O)NC(=O)[C@@H](NC(C)=O)C(C)(C)SSC(C)(C)[C@@H](C(=O)N[C@@H](Cc4ccc(OCCN)cc4)C(=O)N[C@@H](Cc4ccc5ccccc5c4)C(=O)N[C@@](C)(CCCCN)C(=O)N[C@@H](CCCCNC(C)=O)C(=O)N[C@@H](CC(N)=O)C(=O)N[C@H](CCCCN)C(N)=O)NC(=O)[C@H](CCCCNC(C)=O)NC3=O)c[nH]c12 [compound 299] |  | 1 to 10 nM |  | 
